{"source": "patent US20260219259A1", "about": "“METHOD FOR QUANTIFYING INSULIN SECRETION CAPACITY IN HUMAN CELL” (JUNTENDO EDUCATIONAL FOUNDATION, priority 2023, published 2026)", "tested_on": "Huh7 cells", "test": "Insulin production in Huh7 cells expressing Ngn3, Mafa and Pdx1, insulin quantified using HISCL HI-1000", "assay_type": "cell-based, human", "conditions": "concentration of from 1 to 30 nM; FIG. 8", "protocol": "The recombinant SW872 cells that express 3 genes Ngn3, Mafa, and Pdx1 used here were expanded by long-term culture, and the resulting cells were subjected to the same experiment as above. […] Accordingly, a liver-derived cell line Huh7 was infected with Sendai virus vectors (TOKIWA-Bio Inc.) that express 3 genes Ngn3, Mafa, and Pdx1, cultured in a differentiation medium for β cells for 24 hours, and then transfected with expression plasmids of human KLF9 gene and human UCN3 gene using Lipofectamine 3000, and the amount of insulin produced was measured 5 days later. The expression plasmids of human KLF9 gene and human UCN3 gene were prepared by PCR and In-Fusion ligation reaction in the same manner as the method described in Example 3(1) using primers shown in SEQ ID NOs: 65 and 66 and SEQ ID NOS: 69 and 70. pEBMulti-Hyg was used as a negative control, and pEBMulti-hIns was used as a positive control. […] Insulin was quantified using HISCL HI-1000 (Sysmex Corp.). […]\nHuman SW872 cells that produce hIns-HiBiT5 were infected with Sendai virus vectors that express 3 genes Ngn3, Mafa, and Pdx1 in the same manner as in Example 4, and cultured in a differentiation medium for β cells for 24 hours. […] The method for quantifying insulin was performed in the same manner as in Example 4. […]", "data": [{"smiles": "CCCC(CCC)C(=O)O", "note": "[valproic acid]", "values": [{"measurement": "insulin production from the Huh7 cells", "result": "promoted insulin production"}]}]}
